From US20150344457A1, “METHODS OF INHIBITING PRMT5” (EPIZYME, INC., priority 2012, published 2015)

Molecular target: T1, PRMT5/MEP50 (Homo sapiens, UniProt O14744)
T1 construct: Expressed full-length human Flag-PRMT5/6His-MeP50 protein complex was purified; made in house; host or cells: Spodoptera frugiperda (SF9) insect cells, baculovirus (pDEST8)
Experiment: PRMT5 Biochemical Assay (PRMT5/MEP50 enzyme assay on peptide substrate, 3H-SAM Flashplate)
Settings: Table A-2; PRMT5/MEP50 4 nM, 3H-SAM 75 nM, peptide 40 nM; read-out: Biochemical IC50
Description: S-adenosylmethionine (SAM), S-adenosylhomocysteine (SAH), bicine, KCl, Tween20, dimethylsulfoxide (DMSO), bovine skin gelatin (BSG), and Tris(2-carboxyethyl)phosphine hydrochloride solution (TCEP) were purchased from Sigma-Aldrich at the highest level of purity possible. ^3H-SAM was purchase from American Radiolabeled Chemicals with a specific activity of 80 Ci/mmol 384-well streptavidin Flashplates were purchased from PerkinElmer.
Peptide representative of human histone H4 residues 1-15 was synthesized with a C-terminal linker-affinity tag motif and a C-terminal amide cap by 21st Century Biochemicals. […] The sequence was Ac-[…][K-Biot]-amide (SEQ ID NO.:3).
Full-length human MEP50 (NM_024102) clone was amplified from a human testis cDNA library incorporating a 5′ sequence encoding a 6-histidine tag (MHHHHHH) (SEQ ID NO.:5) fused directly to Arg 2 of MEP50. The amplified genes were sublconed into pENTR/D/TEV (Life Technologies) and subsequently transferred by Gateway™ attL×attR recombination to pDEST8 baculvirus expression vector (Life Technologies).
Recombinant baculovirus and Baculovirus-Infected Insect Cells (BIIC) were generated according to Bac-to-Bac kit instructions (Life Technologies) and Wasilko, 2006, respectively. Protein over-expression was accomplished by infecting exponentially growing Spodoptera frugiperda (SF9) cell culture at 1.2×10^6 cell/ml with a 5000 fold dilution of BIIC stock. Infections were carried out at 27° C. for 72 hours, harvested by centrifugation, and stored at −80° C. for purification.
Flag-PRMT5/6His-MeP50 was eluted with 300 mM Imidazole in the same buffer. […] Reference: Wasilko, D. J. and S. E. Lee: “TIPS: titerless infected-cells preservation and scale-up” Bioprocess J., 5 (2006), pp. 29-32.
General Procedure for PRMT5/MEP50 Enzyme Assays on Peptide Substrates.
The assays were all performed in a buffer consisting of 20 mM Bicine (pH=7.6), 1 mM TCEP, 0.005% BSG, and 0.002% Tween20, prepared on the day of use. Compounds in 100% DMSO (1 ul) were spotted into a polypropylene 384-well V-bottom plates (Greiner) using a Platemate Plus outfitted with a 384-channel head (Thermo Scientific). DMSO (1 ul) was added to Columns 11, 12, 23, 24, rows A-H for the maximum signal control and 1 ul of SAH, a known product and inhibitor of PRMT5/MEP50, was added to columns 11, 12, 23, 24, rows I-P for the minimum signal control. A cocktail (40 ul) containing the PRMT5/MEP50 enzyme and the peptide was added by Multidrop Combi (Thermo-Fisher). The compounds were allowed to incubate with PRMT5/MEP50 for 30 min at 25 degrees Celsius, then a cocktail (10 ul) containing ^3H-SAM was added to initiate the reaction (final volume=51 ul). The final concentrations of the components were as follows: PRMT5/MEP50 was 4 nM, ^3H-SAM was 75 nM, peptide was 40 nM, SAH in the minimum signal control wells was 100 uM, and the DMSO concentration was 1%. The assays were stopped by the addition of non-radioactive SAM (10 ul) to a final concentration of 600 uM, which dilutes the ^3H-SAM to a level where its incorporation into the peptide substrate is no longer detectable. 50 ul of the reaction in the 384-well polypropylene plate was then transferred to a 384-well Flashplate and the biotinylated peptides were allowed to bind to the streptavidin surface for at least 1 hour before being washed three times with 0.1% Tween20 in a Biotek ELx405 plate washer. The plates were then read in a PerkinElmer TopCount plate reader to measure the quantity of ^3H-labeled peptide bound to the Flashplate surface, measured as disintegrations per minute (dpm) or alternatively, referred to as counts per minute (cpm).
where dpm=disintegrations per minute, cmpd=signal in assay well, and min and max are the respective minimum and maximum signal controls.
where top and bottom are the normally allowed to float, but may be fixed at 100 or 0 respectively in a 3-parameter fit.

T1 sequence (O14744 with tags, fused parts or gaps): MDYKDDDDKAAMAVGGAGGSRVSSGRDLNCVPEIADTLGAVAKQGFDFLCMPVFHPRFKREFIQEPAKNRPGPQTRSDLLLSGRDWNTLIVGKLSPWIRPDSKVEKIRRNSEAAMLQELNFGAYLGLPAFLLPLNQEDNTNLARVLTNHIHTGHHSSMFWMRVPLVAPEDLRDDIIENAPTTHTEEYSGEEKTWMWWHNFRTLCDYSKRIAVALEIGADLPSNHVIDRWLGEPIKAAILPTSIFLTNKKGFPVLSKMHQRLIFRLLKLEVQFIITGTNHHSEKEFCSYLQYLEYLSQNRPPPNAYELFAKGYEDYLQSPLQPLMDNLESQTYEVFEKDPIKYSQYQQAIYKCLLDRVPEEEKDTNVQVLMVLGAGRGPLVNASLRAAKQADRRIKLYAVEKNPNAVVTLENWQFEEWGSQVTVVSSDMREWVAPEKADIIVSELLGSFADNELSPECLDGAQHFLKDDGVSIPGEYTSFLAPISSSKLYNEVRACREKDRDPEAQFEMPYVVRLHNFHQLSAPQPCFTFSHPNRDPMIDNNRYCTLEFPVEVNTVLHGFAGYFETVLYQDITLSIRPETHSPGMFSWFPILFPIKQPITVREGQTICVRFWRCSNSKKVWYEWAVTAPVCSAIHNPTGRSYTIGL
T1 sequence (Q9BQA1 with tags, fused parts or gaps partner limits assumed): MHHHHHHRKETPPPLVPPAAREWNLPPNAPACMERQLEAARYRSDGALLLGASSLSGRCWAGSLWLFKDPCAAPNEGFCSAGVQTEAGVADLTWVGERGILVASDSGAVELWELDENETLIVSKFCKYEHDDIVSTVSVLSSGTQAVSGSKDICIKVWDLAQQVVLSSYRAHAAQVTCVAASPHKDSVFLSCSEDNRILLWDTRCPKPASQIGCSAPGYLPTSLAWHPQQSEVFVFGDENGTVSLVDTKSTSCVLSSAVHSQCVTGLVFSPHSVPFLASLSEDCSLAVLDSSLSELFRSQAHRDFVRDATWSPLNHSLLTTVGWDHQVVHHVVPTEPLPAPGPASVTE

IC50	SMILES
1 to 10 µM	O=C(CCc1ccccc1)NCC(O)CN1CCc2ccccc2C1 (stereo not shown) [Compound A2]
1 to 10 µM	CN(CC(O)CN1CCc2ccccc2C1)C(=O)CCc1ccccc1 (stereo not shown) [Compound A3]
< 0.1 µM	O=C(COc1cccc2c1CCCN2Cc1ccccc1)NCC(O)CN1CCc2ccccc2C1 (stereo not shown) [Compound A4]
10 to 50 µM	CN(CC(O)CN1CCc2ccccc2C1)C(=O)COc1ccccc1 (stereo not shown) [Compound A5]
1 to 10 µM	O=C(COc1ccc(F)cc1)NCC(O)CN1CCc2ccccc2C1 (stereo not shown) [Compound A10]
1 to 10 µM	NC(=O)c1ccc(OCC(=O)NCC(O)CN2CCc3ccccc3C2)cc1 (stereo not shown) [Compound A13]
1 to 10 µM	CS(=O)(=O)c1ccc(OCC(=O)NCC(O)CN2CCc3ccccc3C2)cc1 (stereo not shown) [Compound A14]
0.101 to 1 µM	O=C(COC1CCCCC1)NCC(O)CN1CCc2ccccc2C1 (stereo not shown) [Compound A24]
0.101 to 1 µM	CC(C)(Oc1ccccc1)C(=O)NCC(O)CN1CCc2ccccc2C1 (stereo not shown) [Compound A25]
1 to 10 µM	O=C(COc1ccccc1)NC[C@@H](O)CN1CCc2ccccc2C1 [Compound A33]
1 to 10 µM	O=C(COC1CCOCC1)NCC(O)CN1CCc2ccccc2C1 (stereo not shown) [Compound A41]
10 to 50 µM	O=C(Cc1ccncc1)NCC(O)CN1CCc2ccccc2C1 (stereo not shown) [Compound A51]
1 to 10 µM	NS(=O)(=O)c1ccc(OCC(=O)NCC(O)CN2CCc3ccccc3C2)cc1 (stereo not shown) [Compound A52]
0.101 to 1 µM	O=C(Cc1ccccc1)NC[C@H](O)CN1CCc2ccccc2C1 [Compound A55]
1 to 10 µM	O=C(CC1CCCCC1)NC[C@H](O)CN1CCc2ccccc2C1 [Compound A56]
10 to 50 µM	O=C(Cc1ccccc1)NC[C@@H](O)CN1CCc2ccccc2C1 [Compound A57]
10 to 50 µM	O=C(CC1CCCCC1)NC[C@@H](O)CN1CCc2ccccc2C1 [Compound A58]
1 to 10 µM	C[C@H](Oc1cccc2cccnc12)C(=O)NC[C@@H](O)CN1CCc2ccccc2C1 [Compound A72]
1 to 10 µM	O=C(COc1ccccc1OCCN1CCOCC1)NC[C@@H](O)CN1CCc2ccccc2C1 [Compound A87]
10 to 50 µM	O=C(COc1ccccc1-c1c[nH]cn1)NCC(O)CN1CCc2ccccc2C1 (stereo not shown) [Compound A115]

IC50	SMILES
1 to 10 µM	O=C(COc1cccc(NC2CCOCC2)n1)NCC(O)CN1CCc2ccccc2C1 (stereo not shown) [Compound A121]
1 to 10 µM	O=C(COc1cccc2[nH]c(=O)cnc12)NCC(O)CN1CCc2ccccc2C1 (stereo not shown) [Compound A125]
> 50 µM	CC(Oc1ccccc1S(N)(=O)=O)C(=O)NCC(O)CN1CCc2ccccc2C1 (stereo not shown) [Compound A126]
> 50 µM	CC(=O)Nc1cccnc1OCC(=O)NCC(O)CN1CCc2ccccc2C1 (stereo not shown) [Compound A128]
1 to 10 µM	NS(=O)(=O)c1cccc(OCC(=O)NCC(O)CN2CCc3ccccc3C2)c1 (stereo not shown) [Compound A131]
1 to 10 µM	O=C(COc1ccccc1C1CNC1)NCC(O)CN1CCc2ccccc2C1 (stereo not shown) [Compound A132]
> 10 µM	CN(C)c1cccnc1OCC(=O)NCC(O)CN1CCc2ccccc2C1 (stereo not shown) [Compound A133]
1 to 10 µM	CN1CC(c2ccccc2OCC(=O)NCC(O)CN2CCc3ccccc3C2)C1 (stereo not shown) [Compound A135]
1 to 10 µM	CN1CCC(c2ccccc2OCC(=O)NCC(O)CN2CCc3ccccc3C2)C1 (stereo not shown) [Compound A136]
> 10 µM	CS(=O)(=O)Nc1ncccc1OCC(=O)NCC(O)CN1CCc2ccccc2C1 (stereo not shown) [Compound A139]
1 to 10 µM	CS(=O)(=O)Nc1cccnc1OCC(=O)NCC(O)CN1CCc2ccccc2C1 (stereo not shown) [Compound A140]
1 to 10 µM	CC(C)(C)OC(=O)Nc1ccccc1OCC(=O)NCC(O)CN1CCc2ccccc2C1 (stereo not shown) [Compound A141]
1 to 10 µM	CN(C)c1cncc(OCC(=O)NCC(O)CN2CCc3ccccc3C2)c1 (stereo not shown) [Compound A143]
> 10 µM	O=C(COc1cccc2cccnc12)NCC(O)CN1Cc2ccccc2C(F)(F)C1 (stereo not shown) [Compound A144]
1 to 10 µM	Nc1ncccc1OCC(=O)NCC(O)CN1CCc2ccccc2C1 (stereo not shown) [Compound A145]
> 10 µM	CC(=O)Nc1ncccc1OCC(=O)NCC(O)CN1CCc2ccccc2C1 (stereo not shown) [Compound A147]
> 10 µM	CC(=O)Nc1cncc(OCC(=O)NCC(O)CN2CCc3ccccc3C2)c1 (stereo not shown) [Compound A148]
0.101 to 1 µM	O=C(COc1cccc2c1CCCN2)NCC(O)CN1CCc2ccccc2C1 (stereo not shown) [Compound A150]
0.101 to 1 µM	CN1CCCc2c(OCC(=O)NCC(O)CN3CCc4ccccc4C3)cccc21 (stereo not shown) [Compound A151]
1 to 10 µM	O=C(COCc1cccnc1)NCC(O)CN1CCc2ccccc2C1 (stereo not shown) [Compound A152]

Same assay, conditions: Table B-2; PRMT5/MEP50 4 nM, 3H-SAM 75 nM, peptide 40 nM; read-out: Biochemical IC50

IC50	SMILES
< 0.1 µM	O=C(NCC(O)CN1CCc2ccccc2C1)c1cccc(-c2ccccn2)c1 (stereo not shown) [Compound B1.]
< 0.1 µM	Cn1nccc1-c1cccc(C(=O)NCC(O)CN2CCc3ccccc3C2)c1 (stereo not shown) [Compound B2.]
< 0.1 µM	O=C(NC[C@H](O)CN1CCc2ccccc2C1)c1ccccc1 [Compound B3.]
< 0.1 µM	O=C(NCC(O)CN1CCc2ccccc2C1)c1cccc(-c2cccnc2)c1 (stereo not shown) [Compound B8.]
< 0.1 µM	O=C(NCC(O)CN1CCc2ccccc2C1)c1cccc(-c2ccncc2)c1 (stereo not shown) [Compound B9.]
< 0.1 µM	O=C(NCC(O)CN1CCc2ccccc2C1)c1cccc(-c2cc[nH]n2)c1 (stereo not shown) [Compound B10.]
0.101 to 1 µM	O=C(NCC(O)CN1CCc2ccccc2C1)c1ccccc1-c1ccccn1 (stereo not shown) [Compound B12.]
< 0.1 µM	O=C(NCC(O)CN1CCc2ccccc2C1)c1ccc(-c2ccccn2)cc1 (stereo not shown) [Compound B13.]
< 0.1 µM	O=C(NCC(O)CN1CCc2ccccc2C1)c1cccc(N2CCOCC2)c1 (stereo not shown) [Compound B14.]
< 0.1 µM	O=C(NCC(O)CN1CCc2ccccc2C1)c1cccc(CNC2CCOCC2)c1 (stereo not shown) [Compound B15.]
< 0.1 µM	O=C(NCC(O)CN1CCc2ccccc2C1)c1cccc(NC2CCOCC2)c1 (stereo not shown) [Compound B16.]
0.101 to 1 µM	O=C(NCC(O)CN1CCc2ccccc2C1)c1ccccn1 (stereo not shown) [Compound B17.]
0.101 to 1 µM	O=C(NCC(O)CN1CCc2ccccc2C1)c1cccnc1 (stereo not shown) [Compound B18.]
< 0.1 µM	O=C(NC[C@@H](O)CN1CCc2ccccc2C1)c1cccc(-c2ccccn2)c1 [Compound B19.]
< 0.1 µM	O=C(NC[C@H](O)CN1CCc2ccccc2C1)c1cccc(-c2ccccn2)c1 [Compound B20.]
0.101 to 1 µM	NS(=O)(=O)c1ccc(C(=O)NCC(O)CN2CCc3ccccc3C2)cc1 (stereo not shown) [Compound B21.]
0.101 to 1 µM	NC(=O)c1ccc(C(=O)NCC(O)CN2CCc3ccccc3C2)cc1 (stereo not shown) [Compound B22.]
0.101 to 1 µM	CC(=O)Nc1ccc(C(=O)NCC(O)CN2CCc3ccccc3C2)cc1 (stereo not shown) [Compound B23.]
< 0.1 µM	CS(=O)(=O)Nc1cccc(C(=O)NCC(O)CN2CCc3ccccc3C2)c1 (stereo not shown) [Compound B24.]
0.101 to 1 µM	NC(=O)c1cccc(C(=O)NCC(O)CN2CCc3ccccc3C2)c1 (stereo not shown) [Compound B25.]
0.101 to 1 µM	CC(=O)Nc1cccc(C(=O)NCC(O)CN2CCc3ccccc3C2)c1 (stereo not shown) [Compound B26.]
1 to 10 µM	CS(=O)(=O)Nc1ccccc1C(=O)NCC(O)CN1CCc2ccccc2C1 (stereo not shown) [Compound B27.]
< 0.1 µM	CN(C)CCOc1cccc(C(=O)NCC(O)CN2CCc3ccccc3C2)c1 (stereo not shown) [Compound B28.]

SMILES	IC50
O=C(NC[C@@H](O)CN1CCc2ccccc2C1)Oc1ccccc1 [Compound B11.]	< 0.1 µM
